Measured values: publication PMC7033278, “A Nonpeptide Oxytocin Receptor Agonist for a Durable Relief of Inflammatory Pain” (Scientific Reports, 2020)
Like-named read-outs stand apart in the source and are kept apart here.

Assays:
PDE3A = biological target: T1, PDE3A (Homo sapiens, UniProt Q14432); experiment: enzyme inhibition; type: biochemical; settings: range given for five enzymes together, below significance
T1 construct: Eurofins (contract assay)
Procedure: (§1) In vitro profiling of LIT-001 was performed by Eurofins as described in the Eurofins SafetyScreen-Functional panel, 2018[31]. The hepatotoxicity of LIT-001 was studied with cryo-preserved mouse hepatocytes. After unfreezing (optiTHAW and optiINCUBATE media, Xenotech) and cell viability control, cells (2 × 10^6 cells/ml) were dispatched in 96 well microtiterplates. LIT-001 was added to reach a concentration 1 μM in the presence of 1 × 10^6 cells/mL in a volume of 100 μl/well. The incubation was stopped at 4, 20, 40, 80 and 120 min in adding 100 μl of acetonitrile at 0 °C. A positive control was treated in the same conditions. All samples were analyzed by UHPLC coupled to a mass spectrometer (Shimadzu LC-MS 8030).

Lck kinase = biological target: T2, Lck kinase (Homo sapiens, UniProt P06239); experiment: enzyme inhibition; type: biochemical; settings: range given for five enzymes together, below significance
T2 construct: Eurofins (contract assay)
Procedure: as §1

PDE4D2 = biological target: T3, PDE4D2 (Homo sapiens, UniProt Q08499); experiment: enzyme inhibition; type: biochemical
T3 construct: Eurofins (contract assay)
Procedure: as §1

human recombinant COX(1) = biological target: T4, human recombinant COX(1) (Homo sapiens, UniProt P23219); experiment: enzyme inhibition; type: biochemical; settings: range given for five enzymes together, below significance
T4 construct: Eurofins (contract assay)
Procedure: as §1

COX(2) = biological target: T5, COX(2) (Homo sapiens, UniProt P35354); experiment: enzyme inhibition; type: biochemical
T5 construct: Eurofins (contract assay)
Procedure: as §1

[1] = biological target: T6, MAO-A from human placenta (Homo sapiens, UniProt P21397); experiment: enzyme inhibition; type: biochemical; settings: range given for five enzymes together, below significance
T6 construct: MAO-A from human placenta; tissue Eurofins (contract assay); host or cells: human placenta
Procedure: as §1

acetylcholinesterase = biological target: T7, acetylcholinesterase (Homo sapiens, UniProt P22303); experiment: enzyme inhibition; type: biochemical; settings: range given for five enzymes together, below significance
T7 construct: Eurofins (contract assay)
Procedure: as §1

[2] = distribution and clearance after i.p. injection, LC-MS/MS; type: in vivo; settings: ip, rat, 10 mg/kg i.p.
Procedure: Brains from rat injected with 10 mg/kg (18.8 µmol/kg) i.p. of LIT-001 were homogenized with an Ultra Turrax instrument (Ika, Staufen, Germany) in 2 ml of H2O (Figs. 4, S4). The homogenates were then sonicated (3 times 10 s, 100 W) with a Vibra Cell apparatus (Sonics, Newtown, U.S.A.). Protein concentrations were determined using the Bradford method (Protein Assay, Bio-Rad, Marne-la-Coquette, France). 400 µl was mixed with 4 ml of ice cold acetonitrile (ACN) and let 30 min on ice. Samples were then centrifuged (20,000 × g, 30 min) at 4 °C. Supernatants were dried under vacuum and resuspended in 400 µl ACN 10%/H2O 89.9%/formic acid 0.1% (v/v/v) and a volume of 5 µl was injected on the LC-MS/MS. For CSF, plasma and urine, 200 µl of fluids were mixed with 1 ml of ice cold acetonitrile (ACN) and let 30 min on ice. Samples were then centrifuged (20,000 × g, 30 min) at 4 °C. Supernatants were dried under vacuum and suspended in 200 µl ACN 10%/H2O 89.9%/formic acid 0.1% (v/v/v) and a volume of 5 µl was injected on the LC-MS/MS.
Analyses were performed on a Dionex Ultimate 3000 HPLC system (Thermo Scientific, San Jose, USA) coupled with a triple quadrupole Endura mass spectrometer (Thermo Scientific). The system was controlled by Xcalibur v.2.0 software (Thermo Electron). Samples were loaded onto an Accucore C18 RP-MS column (ref 17126–151030; 150 × 1 mm 2.6 μm, Thermo Scientific) heated at 40 °C. The presence of LIT-001 was studied using the multiple reaction monitoring mode (MRM). Elution was performed at a flow rate of 150 µl/min by applying a linear gradient of mobile phases A/B. Mobile phase A corresponded to ACN 1%/H2O 98.9%/formic acid 0.1% (v/v/v), whereas mobile phase B was ACN 99.9%/formic acid 0.1% (v/v). The gradient used is detailed in Fig. S4. […] Desolvation (nitrogen) sheath gas was set to 27 Arb and Aux gas was set to 9 Arb. The ion transfer tube was heated at 312 °C. Q1 and Q2 resolutions were set at 0.7 FWHM, whereas collision gas (CID, argon) was set to 2 mTorr. Identification of the compounds was based on precursor ion, selective fragment ions and retention times obtained for LIT-001. Selection of the monitored transitions and optimization of collision energy and RF Lens parameters were manually determined (see Fig. S4 for details). Qualification and quantification were performed in MRM mode. Quantification was obtained using Quan Browser software (Thermo Scientific). For tissues and fluids, LIT-001 was quantified using calibration curves of external standards of LIT-001 (125 fmol to 100 pmol/injection; Fig. S4) added to urine, plasma or brain extracts of naive rat and submitted to the same procedure described for respective fluids and tissue recovery. The amounts of LIT-001 measured in samples fit within the standard curve limits, with typical analytical ranges (the range of amounts that can be accurately quantified) from […].

[3] = test system: V2 vasopressin receptor (V2R); parameters: method as in PMID 30199637; settings: cited from earlier work
V1aR (hV1AR) = test system: V1aR (hV1AR); parameters: method as in PMID 30199637; settings: cited from earlier work
[4] = CSF, read-out: concentration in CSF
[5] = brain, read-out: concentration in brain
[6] = plasma, read-out: concentration in plasma
[7] = urine, read-out: concentration in urine

T4 sequence (P23219 24-599): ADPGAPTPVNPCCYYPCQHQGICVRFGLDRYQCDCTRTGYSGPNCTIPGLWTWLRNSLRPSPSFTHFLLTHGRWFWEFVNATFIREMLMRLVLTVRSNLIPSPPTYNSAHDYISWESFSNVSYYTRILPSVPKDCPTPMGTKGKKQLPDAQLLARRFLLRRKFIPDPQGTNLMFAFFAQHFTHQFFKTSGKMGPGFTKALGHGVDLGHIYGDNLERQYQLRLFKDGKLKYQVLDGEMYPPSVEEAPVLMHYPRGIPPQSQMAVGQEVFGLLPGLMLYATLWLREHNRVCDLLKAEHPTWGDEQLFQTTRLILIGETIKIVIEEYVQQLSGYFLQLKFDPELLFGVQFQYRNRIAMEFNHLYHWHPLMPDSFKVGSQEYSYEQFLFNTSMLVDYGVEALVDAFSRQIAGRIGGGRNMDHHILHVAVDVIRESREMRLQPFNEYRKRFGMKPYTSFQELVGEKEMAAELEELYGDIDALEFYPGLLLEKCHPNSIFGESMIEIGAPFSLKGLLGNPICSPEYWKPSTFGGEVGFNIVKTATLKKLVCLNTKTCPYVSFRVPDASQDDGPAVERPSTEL
T1 sequence (Q14432 whole entry): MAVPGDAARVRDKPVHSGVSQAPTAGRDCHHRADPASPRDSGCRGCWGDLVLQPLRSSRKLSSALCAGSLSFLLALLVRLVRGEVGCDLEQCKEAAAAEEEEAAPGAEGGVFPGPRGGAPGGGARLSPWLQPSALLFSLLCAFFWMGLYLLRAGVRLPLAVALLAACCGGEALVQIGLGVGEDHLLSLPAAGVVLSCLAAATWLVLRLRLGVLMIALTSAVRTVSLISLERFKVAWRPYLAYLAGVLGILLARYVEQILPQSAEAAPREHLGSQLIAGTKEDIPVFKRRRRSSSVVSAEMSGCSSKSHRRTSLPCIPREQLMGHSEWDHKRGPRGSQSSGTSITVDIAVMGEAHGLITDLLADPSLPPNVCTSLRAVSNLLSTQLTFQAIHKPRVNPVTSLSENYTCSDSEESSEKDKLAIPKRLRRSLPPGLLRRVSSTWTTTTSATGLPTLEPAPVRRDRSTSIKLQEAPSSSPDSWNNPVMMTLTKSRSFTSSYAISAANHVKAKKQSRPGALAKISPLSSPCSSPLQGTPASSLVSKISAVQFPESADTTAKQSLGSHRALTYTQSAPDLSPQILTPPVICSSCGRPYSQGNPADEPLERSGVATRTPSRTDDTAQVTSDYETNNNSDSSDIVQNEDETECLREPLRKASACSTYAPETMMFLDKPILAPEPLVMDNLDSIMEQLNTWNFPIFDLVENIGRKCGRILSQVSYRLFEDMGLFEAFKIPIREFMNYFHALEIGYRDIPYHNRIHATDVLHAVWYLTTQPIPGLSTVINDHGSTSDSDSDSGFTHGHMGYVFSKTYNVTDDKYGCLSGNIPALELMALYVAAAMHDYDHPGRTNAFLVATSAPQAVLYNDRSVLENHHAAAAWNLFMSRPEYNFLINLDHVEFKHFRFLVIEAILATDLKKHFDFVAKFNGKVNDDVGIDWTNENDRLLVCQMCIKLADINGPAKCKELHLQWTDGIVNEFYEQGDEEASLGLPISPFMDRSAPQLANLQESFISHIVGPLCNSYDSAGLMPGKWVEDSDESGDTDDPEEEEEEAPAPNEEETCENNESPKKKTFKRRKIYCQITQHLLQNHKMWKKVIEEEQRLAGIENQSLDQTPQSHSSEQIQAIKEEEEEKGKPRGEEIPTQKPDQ
T2 sequence (P06239 whole entry): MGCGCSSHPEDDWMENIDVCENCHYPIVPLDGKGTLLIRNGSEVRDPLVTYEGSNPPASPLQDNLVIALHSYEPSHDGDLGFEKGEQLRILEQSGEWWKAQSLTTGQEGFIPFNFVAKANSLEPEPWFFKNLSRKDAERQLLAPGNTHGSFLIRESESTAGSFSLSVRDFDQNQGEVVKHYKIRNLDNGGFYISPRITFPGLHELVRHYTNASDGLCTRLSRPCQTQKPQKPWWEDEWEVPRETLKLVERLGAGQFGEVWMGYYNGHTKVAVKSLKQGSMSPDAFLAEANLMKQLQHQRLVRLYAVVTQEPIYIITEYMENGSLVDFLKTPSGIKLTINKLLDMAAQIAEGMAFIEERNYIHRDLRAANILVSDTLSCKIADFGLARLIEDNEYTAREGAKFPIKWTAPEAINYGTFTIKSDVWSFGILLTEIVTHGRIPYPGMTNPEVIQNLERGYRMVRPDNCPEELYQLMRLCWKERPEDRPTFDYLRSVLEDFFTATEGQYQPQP
T5 sequence (P35354 18-604): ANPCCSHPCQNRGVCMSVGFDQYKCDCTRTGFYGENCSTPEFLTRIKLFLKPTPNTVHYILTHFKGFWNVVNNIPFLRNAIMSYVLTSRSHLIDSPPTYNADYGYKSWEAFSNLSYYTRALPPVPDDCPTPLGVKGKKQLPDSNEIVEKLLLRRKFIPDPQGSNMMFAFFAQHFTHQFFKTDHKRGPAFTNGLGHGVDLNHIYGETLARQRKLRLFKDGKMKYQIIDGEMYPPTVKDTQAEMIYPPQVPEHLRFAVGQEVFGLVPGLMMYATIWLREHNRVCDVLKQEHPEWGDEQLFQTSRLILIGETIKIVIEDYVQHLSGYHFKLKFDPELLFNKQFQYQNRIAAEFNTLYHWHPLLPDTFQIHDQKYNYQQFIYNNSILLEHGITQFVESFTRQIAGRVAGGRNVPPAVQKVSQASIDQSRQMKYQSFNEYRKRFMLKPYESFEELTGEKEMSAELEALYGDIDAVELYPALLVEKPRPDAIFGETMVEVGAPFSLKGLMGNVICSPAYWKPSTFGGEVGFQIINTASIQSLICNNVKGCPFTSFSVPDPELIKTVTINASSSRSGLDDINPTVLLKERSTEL
T6 sequence (P21397 whole entry): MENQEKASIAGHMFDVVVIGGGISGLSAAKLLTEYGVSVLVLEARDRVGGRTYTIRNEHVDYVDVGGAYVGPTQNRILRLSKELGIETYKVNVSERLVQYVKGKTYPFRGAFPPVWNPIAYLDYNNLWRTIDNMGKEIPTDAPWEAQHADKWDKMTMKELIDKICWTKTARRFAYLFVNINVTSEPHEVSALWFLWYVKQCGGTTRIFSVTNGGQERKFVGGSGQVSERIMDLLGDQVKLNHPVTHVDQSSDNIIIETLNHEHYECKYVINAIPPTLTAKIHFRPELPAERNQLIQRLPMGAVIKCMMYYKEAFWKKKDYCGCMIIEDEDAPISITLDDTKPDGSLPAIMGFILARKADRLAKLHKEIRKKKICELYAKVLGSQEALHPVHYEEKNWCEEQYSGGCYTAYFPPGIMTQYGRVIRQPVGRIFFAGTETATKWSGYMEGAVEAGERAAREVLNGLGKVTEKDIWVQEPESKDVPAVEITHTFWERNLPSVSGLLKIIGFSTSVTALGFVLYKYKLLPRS
T3 sequence (Q08499 303-809): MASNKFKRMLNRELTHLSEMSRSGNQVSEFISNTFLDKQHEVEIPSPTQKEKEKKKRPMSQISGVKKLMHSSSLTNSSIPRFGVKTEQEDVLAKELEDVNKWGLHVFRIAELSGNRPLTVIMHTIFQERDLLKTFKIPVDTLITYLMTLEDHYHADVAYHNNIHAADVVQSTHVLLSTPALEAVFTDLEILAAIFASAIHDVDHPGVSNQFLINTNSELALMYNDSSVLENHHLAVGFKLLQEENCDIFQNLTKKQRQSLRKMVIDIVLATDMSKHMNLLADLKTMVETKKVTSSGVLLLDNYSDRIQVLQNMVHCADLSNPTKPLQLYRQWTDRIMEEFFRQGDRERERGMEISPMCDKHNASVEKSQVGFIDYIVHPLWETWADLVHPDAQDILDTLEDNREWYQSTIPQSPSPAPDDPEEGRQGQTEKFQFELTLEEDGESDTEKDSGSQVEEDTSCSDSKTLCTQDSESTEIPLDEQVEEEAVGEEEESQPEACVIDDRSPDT
T7 sequence (P22303 32-614): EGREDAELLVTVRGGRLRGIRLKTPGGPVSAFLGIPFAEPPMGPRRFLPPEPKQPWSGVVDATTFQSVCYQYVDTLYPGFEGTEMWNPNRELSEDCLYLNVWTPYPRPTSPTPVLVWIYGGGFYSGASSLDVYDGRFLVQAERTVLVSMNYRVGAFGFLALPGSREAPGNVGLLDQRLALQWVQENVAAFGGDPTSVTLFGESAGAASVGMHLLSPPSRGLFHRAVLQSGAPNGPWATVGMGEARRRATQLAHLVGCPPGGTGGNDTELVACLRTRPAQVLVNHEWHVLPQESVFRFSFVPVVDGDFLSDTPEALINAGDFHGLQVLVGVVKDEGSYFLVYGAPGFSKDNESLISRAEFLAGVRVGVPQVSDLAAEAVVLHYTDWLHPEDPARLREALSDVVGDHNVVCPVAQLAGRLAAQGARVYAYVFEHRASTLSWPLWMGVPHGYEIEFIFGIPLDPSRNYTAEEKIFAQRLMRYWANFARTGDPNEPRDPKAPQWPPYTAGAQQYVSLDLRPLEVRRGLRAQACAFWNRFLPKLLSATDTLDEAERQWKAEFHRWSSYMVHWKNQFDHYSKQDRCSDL

Cc1cc(C(=O)N2Cc3cnn(C)c3Nc3ccccc32)ccc1CNC(=O)N1CCC[C@H]1C(=S)N(C)C [LIT-001]
inhibition at 5 µM (PDE3A): 6.4 to 9.5%
inhibition at 5 µM (Lck kinase): 6.4 to 9.5%
inhibition at 5 µM (PDE4D2): 23.1%
inhibition at 5 µM (human recombinant COX(1)): 6.4 to 9.5%
inhibition at 5 µM (COX(2)): 24.6%
inhibition at 5 µM [1]: 6.4 to 9.5%
inhibition at 5 µM (acetylcholinesterase): 6.4 to 9.5%
concentration at 60 min [2, 4]: 7.4 ± 4.4 nM
concentration at 300 min [2, 4]: 1.5 ± 1.1 nM
concentration at 60 min [2, 5]: 1.6 ± 0.8 nM
concentration at 300 min [2, 5]: 0.6 ± 0.4 nM
concentration at 30 min ([2]; plasma, 30 min (highest)): 650 ± 200 nM
concentration at 60 min [2, 6]: 626 ± 112 nM
concentration at 300 min [2, 6]: 95.2 ± 36.5 nM
concentration at 60 min [2, 7]: 52500 ± 14200 nM
concentration at 300 min [2, 7]: 189000 ± 8480 nM
V2R agonism in functional assays [3]: potent V2R agonist
EC50 (hV1AR) (V1aR (hV1AR); agonist mode): non significant
IC50 (V1aR (hV1AR); antagonist mode, read-out: IC50, antagonism of vasopressin induced calcium release on V1aR): 5.9 µM
